The results in this text go back to ChEMBL document CHEMBL5465560, “Selectivity Literature for EUbOPEN Chemogenomic Library” (2024).

The target in assay [1] is T1, Histone-lysine N-methyltransferase EHMT1 (Homo sapiens) (UniProt Q9H9B1).
T1 sequence (whole entry): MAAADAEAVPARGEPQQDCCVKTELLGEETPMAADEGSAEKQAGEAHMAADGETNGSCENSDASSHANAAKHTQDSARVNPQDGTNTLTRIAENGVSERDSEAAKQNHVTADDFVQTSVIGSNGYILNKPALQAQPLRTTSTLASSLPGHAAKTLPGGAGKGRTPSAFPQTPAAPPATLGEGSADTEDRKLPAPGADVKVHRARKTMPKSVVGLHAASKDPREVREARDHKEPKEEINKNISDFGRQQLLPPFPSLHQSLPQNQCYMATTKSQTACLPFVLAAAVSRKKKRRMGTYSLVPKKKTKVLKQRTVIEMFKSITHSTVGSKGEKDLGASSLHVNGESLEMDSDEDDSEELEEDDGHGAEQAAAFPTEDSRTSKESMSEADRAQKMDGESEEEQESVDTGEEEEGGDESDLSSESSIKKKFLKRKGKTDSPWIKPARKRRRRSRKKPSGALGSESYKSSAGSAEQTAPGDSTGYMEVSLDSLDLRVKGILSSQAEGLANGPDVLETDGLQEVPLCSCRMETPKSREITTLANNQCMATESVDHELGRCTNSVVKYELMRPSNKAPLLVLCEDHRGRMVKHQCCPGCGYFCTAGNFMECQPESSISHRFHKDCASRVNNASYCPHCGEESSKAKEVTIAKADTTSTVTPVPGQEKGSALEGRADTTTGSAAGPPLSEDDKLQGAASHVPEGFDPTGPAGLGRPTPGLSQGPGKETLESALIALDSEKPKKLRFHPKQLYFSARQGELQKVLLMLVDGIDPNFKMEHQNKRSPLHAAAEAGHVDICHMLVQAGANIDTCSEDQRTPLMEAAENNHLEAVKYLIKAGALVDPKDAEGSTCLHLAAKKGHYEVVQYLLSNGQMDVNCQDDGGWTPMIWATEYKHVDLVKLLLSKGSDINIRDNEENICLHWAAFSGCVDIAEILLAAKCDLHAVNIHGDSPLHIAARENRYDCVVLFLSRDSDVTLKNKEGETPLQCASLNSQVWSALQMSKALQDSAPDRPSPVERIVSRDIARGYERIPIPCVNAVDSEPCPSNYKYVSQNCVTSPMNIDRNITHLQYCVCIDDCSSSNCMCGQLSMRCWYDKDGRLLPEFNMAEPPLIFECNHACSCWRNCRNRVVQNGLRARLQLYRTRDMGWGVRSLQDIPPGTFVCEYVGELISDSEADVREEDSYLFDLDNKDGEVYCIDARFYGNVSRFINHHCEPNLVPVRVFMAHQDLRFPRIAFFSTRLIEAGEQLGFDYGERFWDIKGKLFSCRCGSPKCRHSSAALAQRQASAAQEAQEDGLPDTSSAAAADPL
Kind of assay: Selectivity interaction (Methyltransferase screen (Scintillation proximity assays)) EUB0000255b EHMT1.

Assay [2] deals with T2, Casein kinase I isoform alpha-like (Homo sapiens) (UniProt Q8N752).
T2 sequence (whole entry): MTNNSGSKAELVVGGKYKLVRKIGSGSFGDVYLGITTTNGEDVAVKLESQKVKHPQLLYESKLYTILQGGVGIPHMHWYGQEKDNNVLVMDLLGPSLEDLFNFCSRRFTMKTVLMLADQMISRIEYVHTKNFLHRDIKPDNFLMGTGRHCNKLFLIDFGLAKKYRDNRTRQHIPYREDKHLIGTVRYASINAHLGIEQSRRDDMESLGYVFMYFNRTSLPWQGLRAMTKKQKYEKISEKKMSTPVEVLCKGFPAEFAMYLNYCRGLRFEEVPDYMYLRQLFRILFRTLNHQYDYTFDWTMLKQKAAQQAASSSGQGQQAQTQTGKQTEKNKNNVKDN
The note with it: at 10 µM.

Assay [3] has as its target T3, Mitogen-activated protein kinase kinase kinase 3 (Homo sapiens) (UniProt Q99759).
T3 sequence (whole entry): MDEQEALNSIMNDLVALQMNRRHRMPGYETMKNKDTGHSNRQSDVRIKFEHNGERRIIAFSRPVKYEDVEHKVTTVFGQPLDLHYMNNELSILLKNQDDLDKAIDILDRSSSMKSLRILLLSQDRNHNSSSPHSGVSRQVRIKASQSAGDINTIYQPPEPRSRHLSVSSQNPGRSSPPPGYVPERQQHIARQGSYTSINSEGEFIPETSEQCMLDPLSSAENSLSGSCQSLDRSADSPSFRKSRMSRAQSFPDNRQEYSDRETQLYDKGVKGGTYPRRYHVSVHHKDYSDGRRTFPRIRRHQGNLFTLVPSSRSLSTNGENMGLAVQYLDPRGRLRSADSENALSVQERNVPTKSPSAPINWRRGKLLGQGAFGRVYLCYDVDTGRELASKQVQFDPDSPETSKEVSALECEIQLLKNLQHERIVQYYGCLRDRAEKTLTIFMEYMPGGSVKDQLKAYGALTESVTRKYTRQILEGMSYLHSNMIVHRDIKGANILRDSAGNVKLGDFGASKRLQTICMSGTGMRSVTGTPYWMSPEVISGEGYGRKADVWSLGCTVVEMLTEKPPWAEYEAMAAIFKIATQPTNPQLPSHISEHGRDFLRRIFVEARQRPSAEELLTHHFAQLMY
Kind of assay: Selectivity interaction (ActivX KiNativ screen (ex vivo kinase selectivity in human PBMCs)) EUB0001619a MAP3K3. It is filed as cell-based. The note with it: PBMC, at 1 µM.

Assay [4] addresses T4, Tyrosine-protein kinase ZAP-70 (Homo sapiens) (UniProt P43403).
T4 sequence (whole entry): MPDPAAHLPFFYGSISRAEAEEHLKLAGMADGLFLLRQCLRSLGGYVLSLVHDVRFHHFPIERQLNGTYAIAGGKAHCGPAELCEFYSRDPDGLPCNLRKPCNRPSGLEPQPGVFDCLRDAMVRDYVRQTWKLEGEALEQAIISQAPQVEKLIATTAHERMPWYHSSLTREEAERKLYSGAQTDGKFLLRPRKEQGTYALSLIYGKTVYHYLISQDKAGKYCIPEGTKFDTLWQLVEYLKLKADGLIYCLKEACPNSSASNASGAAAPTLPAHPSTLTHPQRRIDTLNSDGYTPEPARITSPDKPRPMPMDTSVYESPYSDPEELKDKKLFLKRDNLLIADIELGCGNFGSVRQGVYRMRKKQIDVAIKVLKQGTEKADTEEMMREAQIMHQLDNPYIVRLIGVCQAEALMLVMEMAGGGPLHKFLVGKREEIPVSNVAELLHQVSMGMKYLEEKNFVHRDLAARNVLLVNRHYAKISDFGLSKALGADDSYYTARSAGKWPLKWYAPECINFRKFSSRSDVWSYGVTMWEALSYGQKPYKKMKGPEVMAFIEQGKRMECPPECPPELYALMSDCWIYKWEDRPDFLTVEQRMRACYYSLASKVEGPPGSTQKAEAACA
Put plainly: Selectivity interaction (KinomeScan (DiscoverX)) EUB0001619a ZAP70. As to conditions: at 1 µM.

For assay [5], the target named is cAMP-dependent protein kinase catalytic subunit alpha (Homo sapiens, UniProt P17612). Kind of assay: Selectivity interaction (KinomeScan (DiscoverX)) EUB0001079a PRKACA. The note with it: at 1 µM.

As for `COCCN1CCC(c2cc(CN(C)C(=O)c3cccc(Oc4ccccc4)c3)ccn2)CC1`, the % activity in assay [1] (at 1 µM) is above 95%; in assay [1] (at 10 µM), above 90%. For `COCC(=O)NC/C=C/c1ccc2ncnc(Nc3ccc(Oc4ccc(C)nc4)c(C)c3)c2c1` [CP-724714], in assay [2], the % of control stood at 82%. As for `N#Cc1cccc(-c2c[nH]c3ncnc(N4CCOCC4)c23)c1`, the % of inhibition in assay [3] was 7%. Further, in assay [4], the % of control came out at 96%. In turn, `Nc1cnc(N2CCc3cc(S(=O)(=O)Nc4c(F)cc(Cl)cc4F)cc(N4CCCC4=O)c32)nc1` [TP-020n] yielded a % of control in assay [5] of 100%.
